# Source: paper PMC8810776, “Gut microbiome of the largest living rodent harbors unprecedented enzymatic systems to degrade plant polysaccharides” (Nature Communications, 2022)
# Assays:
# Experiment in all cases: substrate saturation curve, initial velocities
# CapGH173 = tested on: T1, CapGH173; type: biochemical, Bacteroidales bacterium MAG42; details: pH 7.5, 45 °C, 70 mM McIlvaine buffer
# T1 construct: recombinant in E. coli BL21, pET28a, N-terminal 6xHis-tag cleaved with trypsin
# Description: substrate saturation curve, initial velocities on CapGH173
# CapGH97 = tested on: T2, CapGH97; type: biochemical, Bacteroidaceae bacterium MAG57; details: pH 7.0, 35 °C, 70 mM McIlvaine buffer, 5 mM CaCl2
# T2 construct: recombinant in E. coli BL21, pET28a, N-terminal 6xHis-tag cleaved with trypsin; gene of cluster CC102
# Description: substrate saturation curve, initial velocities on CapGH97
# CapGH43_12 = tested on: T3, CapGH43_12; type: biochemical, Bacteroidaceae bacterium MAG57; details: pH 6.5, 35 °C, 70 mM McIlvaine buffer
# T3 construct: recombinant in E. coli BL21, pET28a, N-terminal 6xHis-tag cleaved with trypsin; gene of cluster CC102
# Description: substrate saturation curve, initial velocities on CapGH43_12
# [1] = tested on: O=[N+]([O-])c1ccc(O[C@@H]2O[C@H](CO)[C@H](O)[C@H](O)[C@H]2O)cc1; type: biochemical, Bacteroides xylanisolvens; details: pH 7.5, 45 °C
# Description: substrate saturation curve, initial velocities on BXY_26070 (CBK67650)
molecule,measurement,setting,value
"O=[N+]([O-])c1ccc(O[C@@H]2O[C@H](CO)[C@H](O)[C@H](O)[C@H]2O)cc1 [pNP-β-D-Gal, p-nitrophenyl-β-D-galactopyranoside]",Km,CapGH173,570 ± 50 µM
"O=[N+]([O-])c1ccc(O[C@H]2O[C@H](CO)[C@H](O)[C@H](O)[C@H]2O)cc1 [pNP-α-D-Gal, p-nitrophenyl-α-D-galactopyranoside]",Km,CapGH97,7700 ± 610 µM
"O=[N+]([O-])c1ccc(O[C@@H]2O[C@@H](CO)[C@H](O)[C@H]2O)cc1 [pNP-α-L-AraF, p-nitrophenyl-α-L-arabinofuranoside]",Km,CapGH43_12,2740 ± 290 µM
BXY_26070 (CBK67650) (Bacteroides xylanisolvens XB1A),Km,[1],1190 ± 350 µM
same,kcat,[1],29.9 ± 1.95 s⁻¹
same,kcat/Km,[1],25100 M⁻¹ s⁻¹
